Values after ≈ are worked out from the molar mass of the structure shown. Numbered stars: 1 amine (or outer) side, 2 acyl side, 3 side chain; on linkers, the order of the positions; unused ones are H or OH. Square brackets hold non-standard residues; d marks the D form. Peptide text beside a SMILES is read from it. X1 = CC(C)[C@H](C)N(CC(=O)[*:2])[*:1]; Nspe = C[C@H](NCC(=O)O)c1ccccc1; Nlys = NCCCCNCC(=O)O
Assays:
E. faecium mic80 (VRE) = assay: microbe, parasite or virus in culture; conditions: mic80 (VRE)
Procedure, shortened: (§1)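 Agents were diluted serially at 10x in acetic acid/BSA, added to Mueller Hinton medium, then inoculated with bacteria at 2–7 x 10^5 CFU/mL. Plates were incubated overnight at 37°C and scored for growth.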

P. aeruginosa 198 (MDR) = assay: microbe, parasite or virus in culture; conditions: 198 (MDR)
Procedure, shortened: as §1

[1] = test system: K. pneumonia 63575 (ESBL); assay: microbe, parasite or virus in culture
Procedure, shortened: as §1

[2] = test system: P. aeruginosa H1027 (MDR); assay: microbe, parasite or virus in culture; conditions: H1027 (MDR)
Procedure, shortened: as §1

[3] = test system: P. aeruginosa LES400 (MDR); assay: microbe, parasite or virus in culture; conditions: LES400 (MDR)
Procedure, shortened: as §1

[4] = test system: E. cloacae 218R Class C β-lactamase; assay: microbe, parasite or virus in culture; conditions: 218R Class C β-lactamase
Procedure, shortened: as §1

E. faecalis W61950 (VRE) = assay: microbe, parasite or virus in culture; conditions: W61950 (VRE)
Procedure, shortened: as §1

[5] = test system: P. aeruginosa H103 (wild type); assay: microbe, parasite or virus in culture; conditions: H103 (wild type)
Procedure, shortened: as §1

[6] = test system: K. pneumonia 61962 (ESBL); assay: microbe, parasite or virus in culture
Procedure, shortened: as §1

E. faecalis F43559 (VRE) = assay: microbe, parasite or virus in culture; conditions: F43559 (VRE)
Procedure, shortened: as §1

S. aureus C623 (MRSA) = assay: microbe, parasite or virus in culture; conditions: C623
Procedure, shortened: as §1

E. faecium T62764 (VRE) = assay: microbe, parasite or virus in culture; conditions: T62764 (VRE)
Procedure, shortened: as §1

[7] = test system: P. aeruginosa H1030 (MDR); assay: microbe, parasite or virus in culture; conditions: P. aeruginosa H1030 (MDR)
Procedure, shortened: as §1

E. coli 64771 (ESBL) = assay: microbe, parasite or virus in culture; conditions: 64771 (ESBL)
Procedure, shortened: as §1

E. faecalis ATCC29212 = assay: microbe, parasite or virus in culture
Procedure, shortened: as §1

E. coli 63103 (ESBL) = assay: microbe, parasite or virus in culture; conditions: 63103 (ESBL)
Procedure, shortened: as §1

P. aeruginosa 9 (MDR) = assay: microbe, parasite or virus in culture; conditions: 9 (MDR)
Procedure, shortened: as §1

P. maltophilia ATCC13637 = assay: microbe, parasite or virus in culture; conditions: ATCC13637
Procedure, shortened: as §1

S. aureus ATCC25923 = assay: microbe, parasite or virus in culture; conditions: ATCC25923
Procedure, shortened: as §1

P. aeruginosa 213 (MDR) = assay: microbe, parasite or virus in culture; conditions: 213 (MDR)
Procedure, shortened: as §1

NIH 3T3 cells = assay: Metabolic activity, MTS assay; type: cell-based, mouse
Description: NIH 3T3 mouse fibroblast cells were cultured in complete Dulbecco’s Modified Eagle’s Media. A peptoid solution plate (100 µL per well) was prepared by serial dilution of aqueous peptoid stock solutions in Hank’s balanced salt solution. A day-old cell monolayer was washed thoroughly with Hank’s balanced salt solution and replenished with 100 µL Hank’s balanced salt solution per well. Peptoid solutions were transferred onto the day-old cell monolayers, which contained approximately 5000 cells per well. […] The average of six replicate trials is reported.

E. coli ATCC 35218 = type: cell-based
Procedure, shortened: (§2)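 MICs determined by 2:1 serial broth microdilution in cation-adjusted Mueller-Hinton broth per CLSI M7-A6, using inoculum at 1 x 10^6 CFU/mL mixed 1:1 with peptoid solution. Three independent replicates, each with two parallel trials.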

B. subtilis ATCC 6633 = type: cell-based
Procedure, shortened: as §2

erythrocytes = assay: Hemolytic activity (HD10/HD50); type: cell-based
From the text: Table 1 Characteristics of antimicrobial peptoids, screened for activity against B. subtilis and E. coli bacterial strains. | column: HD10 / HD50

Compound | MIC (E. faecium mic80 (VRE)) | MIC (P. aeruginosa 198 (MDR)) | MIC [1] | MIC [2] | MIC [3] | MIC [4] | MIC (E. faecalis W61950 (VRE)) | MIC [5] | MIC [6] | MIC (E. faecalis F43559 (VRE)) | MIC (S. aureus C623 (MRSA)) | MIC (E. faecium T62764 (VRE)) | MIC [7] | MIC (E. coli 64771 (ESBL)) | MIC (E. coli 63103 (ESBL)) | MIC (P. aeruginosa 9 (MDR)) | MIC (P. maltophilia ATCC13637) | MIC (S. aureus ATCC25923) | MIC E. coli (E. coli ATCC 35218) | MIC B. subtilis (B. subtilis ATCC 6633) | further results
CC(C)[C@H](C)N(CC(N)=O)C(=O)CN(C(=O)CN(CCCCN)C(=O)CN(C(=O)CN(C(=O)CN(CCCCN)C(=O)CN(C(=O)CN(C(=O)CN(CCCCN)C(=O)CN(C(=O)CN(C(=O)CNCCCCN)[C@@H](C)C(C)C)[C@@H](C)C(C)C)[C@@H](C)C(C)C)[C@@H](C)C(C)C)[C@@H](C)C(C)C)[C@@H](C)C(C)C)[C@@H](C)C(C)C [Peptoid 1-Nsdpall, H-(NLys-Nsdp-Nsdp)4-NH2] | 16 µg/mL (≈ 10.3 µM) | 128 µg/mL (≈ 82.7 µM) | 128 µg/mL (≈ 82.7 µM) | 4 µg/mL (≈ 2.59 µM) | 32 µg/mL (≈ 20.7 µM) | 32 µg/mL (≈ 20.7 µM) | 128 µg/mL (≈ 82.7 µM) | 32 µg/mL (≈ 20.7 µM) | 128 µg/mL (≈ 82.7 µM) | 128 µg/mL (≈ 82.7 µM) | 8 µg/mL (≈ 5.17 µM) | 4 µg/mL (≈ 2.59 µM) | 32 µg/mL (≈ 20.7 µM) | 16 µg/mL (≈ 10.3 µM) | 64 µg/mL (≈ 41.4 µM) | 256 µg/mL (≈ 165 µM) | 1 µg/mL (≈ 0.646 µM) | 16 µg/mL (≈ 10.3 µM) | 25 µM (≈ 38.7 µg/mL) | 0.78 µM (≈ 1.21 µg/mL) | MIC (E. faecalis ATCC29212; ATCC29212): 64 µg/mL (≈ 41.4 µM); MIC (P. aeruginosa 213 (MDR)): 64 µg/mL (≈ 41.4 µM); ID50 (inhibitory dose, metabolic activity) (NIH 3T3 cells): 64 µM; HD10 (hemolytic activity) (erythrocytes): >200 / >200; HD50 (hemolytic activity) (erythrocytes): >200 / >200
H-(NLys-Nspe-Nspe)3-NH2 [Peptoid 1_9mer] |  |  |  |  |  |  |  |  |  |  |  |  |  |  |  |  |  |  | 25 µM | 1.6 µM | 
CC(C)[C@H](C)N(CC(=O)N(CC(=O)N(CCCCN)CC(=O)N(CC(=O)N(CC(=O)N(CCCCN)CC(=O)N(CC(=O)N(CC(=O)N(CCCCN)CC(=O)N(CC(=O)N(CC(N)=O)[C@@H](C)c1ccccc1)[C@@H](C)C(C)C)[C@@H](C)c1ccccc1)[C@@H](C)C(C)C)[C@@H](C)c1ccccc1)[C@@H](C)C(C)C)[C@@H](C)c1ccccc1)C(=O)CNCCCCN [1-Nsdp2.5.8.11, H-(NLys-Nsdp-Nspe)4-NH2] (H-[Nlys][X1][Nspe][Nlys][X1][Nspe][Nlys][X1][Nspe][Nlys][X1][Nspe]-NH2) | 4 µg/mL (≈ 2.38 µM) | 32 µg/mL (≈ 19 µM) | 32 µg/mL (≈ 19 µM) | 4 µg/mL (≈ 2.38 µM) | 16 µg/mL (≈ 9.51 µM) | 16 µg/mL (≈ 9.51 µM) | 32 µg/mL (≈ 19 µM) | 8 µg/mL (≈ 4.75 µM) | 64 µg/mL (≈ 38 µM) | 32 µg/mL (≈ 19 µM) | 8 µg/mL (≈ 4.75 µM) | 2 µg/mL (≈ 1.19 µM) | 16 µg/mL (≈ 9.51 µM) | 8 µg/mL (≈ 4.75 µM) | 16 µg/mL (≈ 9.51 µM) | 256 µg/mL (≈ 152 µM) | 1 µg/mL (≈ 0.594 µM) | 8 µg/mL (≈ 4.75 µM) | 12.5 µM (≈ 21 µg/mL) | 0.78 µM (≈ 1.31 µg/mL) | MIC (E. faecalis ATCC29212; E. faecalis ATCC29212): 8 µg/mL (≈ 4.75 µM); MIC (P. aeruginosa 213 (MDR)): 16 µg/mL (≈ 9.51 µM); ID50 (inhibitory dose, metabolic activity) (NIH 3T3 cells): 20 µM; HD10 (hemolytic activity) (erythrocytes): 111; HD50 (hemolytic activity) (erythrocytes): > 200

From publication PMC4744035, “In Vivo, In Vitro, and In Silico Characterization of Peptoids as Antimicrobial Agents” (PLoS ONE, 2016)
